Calls of active or inactive are those of the source. The rule behind the calls is not given here.
Assays:
[1] = biological target: T1, Mu-type opioid receptor (Homo sapiens, UniProt P35372); test: Agonist activity at mu opioid receptor (unknown origin) expressed CHO cells assessed as stimulation of [35S]-GTP[gammaS] binding; assay type: cell-based
[2] = species: Homo sapiens; test: Selectivity ratio of Ki for delta opioid receptor (unknown origin) to Ki for mu opioid receptor (unknown origin)
[3] = species: Homo sapiens; test: Selectivity ratio of Ki for kappa opioid receptor (unknown origin) to Ki for mu opioid receptor (unknown origin)
[4] = biological target: T1, Mu-type opioid receptor; test: Agonist activity at mu opioid receptor (unknown origin) expressed CHO cells assessed as stimulation of [35S]-GTP[gammaS] binding relative to DAMGO; assay type: cell-based
[5] = biological target: T1, Mu-type opioid receptor; test: Antagonist activity at mu opioid receptor (unknown origin) expressed CHO cells assessed as inhibition of [35S]-GTP[gammaS] binding; assay type: cell-based
[6] = biological target: T1, Mu-type opioid receptor; test: Agonist activity at mu opioid receptor (unknown origin) expressed CHO cells assessed as stimulation of [35S]-GTP[gammaS] binding at 10 uM relative to DAMGO; assay type: cell-based

T1 sequence (P35372 whole entry): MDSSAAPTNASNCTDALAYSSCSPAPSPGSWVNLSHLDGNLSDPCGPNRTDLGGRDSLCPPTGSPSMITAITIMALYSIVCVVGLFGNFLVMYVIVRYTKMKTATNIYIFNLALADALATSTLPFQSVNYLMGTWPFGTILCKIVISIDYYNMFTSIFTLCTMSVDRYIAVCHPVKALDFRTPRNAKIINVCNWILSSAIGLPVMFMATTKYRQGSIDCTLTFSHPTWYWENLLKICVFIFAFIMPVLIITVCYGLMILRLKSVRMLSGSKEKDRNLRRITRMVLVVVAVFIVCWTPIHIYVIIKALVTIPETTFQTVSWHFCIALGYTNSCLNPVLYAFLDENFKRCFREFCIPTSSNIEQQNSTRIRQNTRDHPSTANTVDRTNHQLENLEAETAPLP

| Structure (SMILES) | EC50 [1] | Ratio Ki [2] | Ratio Ki [3] | Emax [4] | inhibition [5] | Emax [6] |
| --- | --- | --- | --- | --- | --- | --- |
| O=C(N[C@@]12CCC(=O)[C@@H]3Oc4c(O)ccc5c4[C@@]31CCN(CC1CC1)[C@@H]2C5)c1ccncc1 | 1.67 nM | 13 | 0.4 | 7.74% | – | – |
| COc1cccc2c1[C@]13CCN(CC4CC4)[C@H](C2)[C@]1(OC)CCC(=O)C3 | – | 40 | 45 | – | – | – |
| O=C(N[C@@]12CCC(=O)[C@@H]3Oc4c(O)ccc5c4[C@@]31CCN(CC1CC1)[C@@H]2C5)c1ccc2ccccc2c1 | 11.1 nM | 1.7 | 0.05 | 16.5% | – | – |
| O=C(N[C@@]12CCC(=O)[C@@H]3Oc4c(O)ccc5c4[C@@]31CCN(CC1CC1)[C@@H]2C5)c1cccnc1 | – | 53 | 0.21 | – | Active | 5.09% |
| O=C(N[C@@]12CCC(=O)[C@@H]3Oc4c(O)ccc5c4[C@@]31CCN(CC1CC1)[C@@H]2C5)c1cnc2ccccc2c1 | 2.81 nM | 1.3 | 0.12 | 15.8% | – | – |
| O=C(N[C@@]12CCC(=O)[C@@H]3Oc4c(O)ccc5c4[C@@]31CCN(CC1CC1)[C@@H]2C5)c1ccc2ccccc2n1 | 38.8 nM | 1.7 | 0.03 | 34.4% | – | – |
| O=C(N[C@@]12CCC(=O)[C@@H]3Oc4c(O)ccc5c4[C@@]31CCN(CC1CC1)[C@@H]2C5)c1ccccc1 | 7.2 nM | 13 | 0.03 | 5.79% | – | – |
| O=C(N[C@@]12CCC(=O)[C@@H]3Oc4c(O)ccc5c4[C@@]31CCN(CC1CC1)[C@@H]2C5)c1cc2ccccc2cn1 | – | 7.2 | 0.07 | – | Active | 2.84% |
| O=C(N[C@@]12CCC(=O)[C@@H]3Oc4c(O)ccc5c4[C@@]31CCN(CC1CC1)[C@@H]2C5)c1ccccn1 | – | 63 | 0.24 | – | Active | 0.9% |

Reference: ChEMBL document CHEMBL2396652 (Bioorg Med Chem Lett, 2013)
